Reference: patent US8802597B2, “Herbicidal pyrimidines” (E I du Pont de Nemours and Company, priority 2003, dated 2014)

Legend:
Assay type in all cases: in vivo
[1] = system: duck salad (Heteranthera limosa); test: Test B flooded paddy test; settings: Flood, scale 0 to 100
Procedure, shortened: (§1)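 Visual injury scoring (0 = no effect, 100 = complete control) versus controls made 13 to 15 days after treatment in the greenhouse. Test species were grown in flooded paddy to the 2-leaf stage: rice, barnyardgrass, umbrella sedge, duck salad.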

[2] = system: barnyardgrass (Echinochloa crus-galli); test: Test B flooded paddy test; settings: Flood, scale 0 to 100
Procedure, shortened: as §1

rice (Oryza sativa) = test: Test B flooded paddy test; settings: Flood, scale 0 to 100
Procedure, shortened: as §1

[3] = system: umbrella sedge (Cyperus difformis); test: Test B flooded paddy test; settings: Flood, scale 0 to 100
Procedure, shortened: as §1

wild oat (Avena fatua) = test: Test B postemergence; settings: scale 0 to 100 (0 no effect, 100 complete control)
Procedure, shortened: (§2)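 Following sowing, compounds in a surfactant-bearing non-phytotoxic solvent were applied preemergence; emerged plants 2 to 18 cm high got postemergence treatment concurrently. Evaluation: 13 to 15 days later, greenhouse, 0–100 visual scale.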

[4] = system: blackgrass (Alopecurus myosuroides); test: Test B postemergence; settings: scale 0 to 100 (0 no effect, 100 complete control)
Procedure, shortened: as §2

[5] = system: giant foxtail (Setaria faberii); test: Test B pre/postemergence; settings: for Foxtail, Giant plant response rating: Postemergence; for Plant response rating, Foxtail, Giant: Preemergence
Procedure, shortened: as §2

[6] = system: Surinam grass (Brachiaria decumbens); test: Test B pre/postemergence; settings: for Surinam Grass plant response rating: Postemergence; for Plant response rating, Surinam Grass: Preemergence
Procedure, shortened: as §2

[7] = system: velvetleaf (Abutilon theophrasti); test: Test B pre/postemergence; settings: for Velvetleaf plant response rating: Postemergence; for Plant response rating, Velvetleaf: Preemergence
Procedure, shortened: as §2

[8] = system: pigweed (Amaranthus retroflexus); test: Test B pre/postemergence; settings: for Pigweed plant response rating: Postemergence; for Plant response rating, Pigweed: Preemergence
Procedure, shortened: as §2

[9] = system: wheat (Triticum aestivum); test: Test B pre/postemergence; settings: for Wheat plant response rating: Postemergence; for Plant response rating, Wheat: Preemergence
Procedure, shortened: as §2

[10] = system: barnyardgrass (Echinochloa crus-galli); test: Test B pre/postemergence; settings: for Barnyardgrass plant response rating: Postemergence; for Plant response rating, Barnyardgrass: Preemergence
Procedure, shortened: as §2

[11] = system: crabgrass (Digitaria sanguinalis); test: Test B pre/postemergence; settings: for Crabgrass plant response rating: Postemergence; for Plant response rating, Crabgrass: Preemergence
Procedure, shortened: as §2

corn (Zea mays) = test: Test B pre/postemergence; settings: for Corn plant response rating: Postemergence; for Plant response rating, Corn: Preemergence
Procedure, shortened: as §2

[12] = system: morningglory (Ipomoea coccinea); test: Test B pre/postemergence; settings: for Morningglory plant response rating: Postemergence; for Plant response rating, Morningglory: Preemergence
Procedure, shortened: as §2

[13] = system: lambsquarters (Chenopodium album); test: Test B pre/postemergence; settings: scale 0 to 100 (0 no effect, 100 complete control); for Lambsquarters plant response rating: Postemergence
Procedure, shortened: as §2

[14] = system: cocklebur (Xanthium strumarium); test: Test B pre/postemergence; settings: for Cocklebur plant response rating: Postemergence; for Plant response rating, Cocklebur: Preemergence
Procedure, shortened: as §2

[15] = 62 g ai/ha, scale 0 to 100 (0 no effect, 100 complete control)
[16] = 125 g ai/ha, scale 0 to 100 (0 no effect, 100 complete control)
[17] = 62 g ai/ha, scale 0 to 100, 0 no effect, 100 complete control
[18] = Heteranthera limosa, 125 g ai/ha, read-out: Plant response rating, Ducksalad
[19] = Heteranthera limosa, 500 g ai/ha, read-out: Plant response rating, Ducksalad
[20] = Echinochloa crus-galli, 125 g ai/ha, read-out: Plant response rating, Barnyardgrass
[21] = Echinochloa crus-galli, 500 g ai/ha, read-out: Plant response rating, Barnyardgrass
[22] = Oryza sativa, 125 g ai/ha, read-out: Plant response rating, Rice
[23] = Oryza sativa, 500 g ai/ha, read-out: Plant response rating, Rice
[24] = Cyperus difformis, 125 g ai/ha, read-out: Plant response rating, Sedge, Umbrella
[25] = Cyperus difformis, 500 g ai/ha, read-out: Plant response rating, Sedge, Umbrella

Q: What does the source list for `CCOC(=O)c1nc(-c2ccc(I)cc2)nc(N)c1Cl` [Compound 133]?
A: Plant response rating, Ducksalad ([1]; 125 g ai/ha): 90; Plant response rating, Ducksalad ([1]; 500 g ai/ha): 90; Plant response rating, Barnyardgrass ([2]; 125 g ai/ha): 0; Plant response rating, Barnyardgrass ([2]; 500 g ai/ha): 0; Plant response rating, Rice (rice (Oryza sativa); 125 g ai/ha): 0; Plant response rating, Rice (rice (Oryza sativa); 500 g ai/ha): 0; Plant response rating, Sedge, Umbrella ([3]; 125 g ai/ha): 90; Plant response rating, Sedge, Umbrella ([3]; 500 g ai/ha): 90; Oat, Wild plant response rating (wild oat (Avena fatua); 62 g ai/ha): 40; Oat, Wild plant response rating (wild oat (Avena fatua); 125 g ai/ha): 60; Blackgrass plant response rating ([4]; 62 g ai/ha): 60; Blackgrass plant response rating ([4]; 125 g ai/ha): 70; Foxtail, Giant plant response rating [5, 15]: 60; Foxtail, Giant plant response rating [5, 16]: 70; Plant response rating, Foxtail, Giant [5, 17]: 0; Plant response rating, Foxtail, Giant [5, 16]: 20; Surinam Grass plant response rating [6, 15]: 60; Surinam Grass plant response rating [6, 16]: 70; Plant response rating, Surinam Grass [6, 17]: 0; Plant response rating, Surinam Grass [6, 16]: 10; Velvetleaf plant response rating [7, 15]: 90; Velvetleaf plant response rating [7, 16]: 100; Plant response rating, Velvetleaf [7, 17]: 50; Plant response rating, Velvetleaf [7, 16]: 60; Pigweed plant response rating [8, 15]: 90; Pigweed plant response rating [8, 16]: 100; Plant response rating, Pigweed [8, 17]: 70; Plant response rating, Pigweed [8, 16]: 80; Wheat plant response rating [9, 15]: 0; Wheat plant response rating [9, 16]: 50; Plant response rating, Wheat [9, 17]: 50; Plant response rating, Wheat [9, 16]: 60; Barnyardgrass plant response rating [10, 15]: 70; Barnyardgrass plant response rating [10, 16]: 70; Plant response rating, Barnyardgrass [10, 17]: 30; Plant response rating, Barnyardgrass [10, 16]: 30; Crabgrass plant response rating [11, 15]: 60; Crabgrass plant response rating [11, 16]: 70; Plant response rating, Crabgrass [11, 17]: 40; Plant response rating, Crabgrass [11, 16]: 70; Corn plant response rating (corn (Zea mays); [15]): 70; Corn plant response rating (corn (Zea mays); [16]): 80; Plant response rating, Corn (corn (Zea mays); [17]): 0; Plant response rating, Corn (corn (Zea mays); [16]): 0; Morningglory plant response rating [12, 15]: 70; Morningglory plant response rating [12, 16]: 100; Plant response rating, Morningglory [12, 17]: 0; Plant response rating, Morningglory [12, 16]: 0; Lambsquarters plant response rating ([13]; 62 g ai/ha): 100; Lambsquarters plant response rating ([13]; 125 g ai/ha): 100; Plant response rating, Lambsquarters ([13]; Preemergence, 125 g ai/ha): 70; Cocklebur plant response rating [14, 15]: 100; Cocklebur plant response rating [14, 16]: 100; Plant response rating, Cocklebur [14, 17]: 20; Plant response rating, Cocklebur [14, 16]: 50

Q: Which results are given for `CCOC(=O)c1nc(-c2ccc(Cl)cc2)nc(N)c1Cl` [Compound 64, ethyl 6-amino-5-chloro-2-(4-chlorophenyl)-4-pyrimidinecarboxylate]?
A: pest or weed control at 62 g/ha ([1]; Heteranthera limosa, 62 g ai/ha, read-out: Plant response rating, Ducksalad): 80%; pest or weed control at 125 g/ha [1, 18]: 90%; pest or weed control at 250 g/ha ([1]; Heteranthera limosa, 250 g ai/ha, read-out: Plant response rating, Ducksalad): 100%; pest or weed control at 500 g/ha [1, 19]: 100%; pest or weed control at 62 g/ha ([2]; Echinochloa crus-galli, 62 g ai/ha, read-out: Plant response rating, Barnyardgrass): 0%; pest or weed control at 125 g/ha [2, 20]: 0%; pest or weed control at 250 g/ha ([2]; Echinochloa crus-galli, 250 g ai/ha, read-out: Plant response rating, Barnyardgrass): 0%; pest or weed control at 500 g/ha [2, 21]: 0%; plant injury at 62 g/ha (rice (Oryza sativa); Oryza sativa, 62 g ai/ha, read-out: Plant response rating, Rice): 0%; plant injury at 125 g/ha (rice (Oryza sativa); [22]): 0%; plant injury at 250 g/ha (rice (Oryza sativa); Oryza sativa, 250 g ai/ha, read-out: Plant response rating, Rice): 0%; plant injury at 500 g/ha (rice (Oryza sativa); [23]): 0%; pest or weed control at 62 g/ha ([3]; Cyperus difformis, 62 g ai/ha, read-out: Plant response rating, Sedge, Umbrella): 0%; pest or weed control at 125 g/ha [3, 24]: 0%; pest or weed control at 250 g/ha ([3]; Cyperus difformis, 250 g ai/ha, read-out: Plant response rating, Sedge, Umbrella): 70%; pest or weed control at 500 g/ha [3, 25]: 90%

Q: What does the source list for `Cc1ccc(-c2nc(N)c(Cl)c(C(=O)O)n2)cc1` [Compound 91]?
A: Plant response rating, Ducksalad ([1]; 125 g ai/ha): 100; Plant response rating, Ducksalad ([1]; 500 g ai/ha): 100; Plant response rating, Barnyardgrass ([2]; 125 g ai/ha): 0; Plant response rating, Barnyardgrass ([2]; 500 g ai/ha): 20; Plant response rating, Rice (rice (Oryza sativa); 125 g ai/ha): 0; Plant response rating, Rice (rice (Oryza sativa); 500 g ai/ha): 0; Plant response rating, Sedge, Umbrella ([3]; 125 g ai/ha): 80; Plant response rating, Sedge, Umbrella ([3]; 500 g ai/ha): 90

Q: For `COC(=O)c1nc(-c2ccc(Cl)cc2)nc(N)c1Cl` [Compound 58, methyl 6-amino-5-chloro-2-(4-chlorophenyl)-4-pyrimidinecarboxylate], which pest or weed control at 125 g/ha [1, 18] is on record?
A: 100%

Q: What about the pest or weed control at 500 g/ha [1, 19] of the same compound?
A: 100%

Q: What about the pest or weed control at 125 g/ha [2, 20] of the same compound?
A: 0%

Q: And the pest or weed control at 500 g/ha [2, 21]?
A: 0%

Q: What about the plant injury at 125 g/ha (rice (Oryza sativa); [22]) of the same compound?
A: 0%

Q: And the plant injury at 500 g/ha (rice (Oryza sativa); [23])?
A: 0%

Q: What about the pest or weed control at 125 g/ha [3, 24] of the same compound?
A: 90%

Q: What about the pest or weed control at 500 g/ha [3, 25] of the same compound?
A: 100%

Q: For `COC(=O)c1nc(C2CC2)nc(N)c1OC` [Compound 59], which pest or weed control at 125 g/ha [1, 18] is on record?
A: 0%

Q: And the pest or weed control at 500 g/ha [1, 19]?
A: 0%

Q: And the pest or weed control at 125 g/ha [2, 20]?
A: 0%

Q: And the pest or weed control at 500 g/ha [2, 21]?
A: 0%

Q: What about the plant injury at 125 g/ha (rice (Oryza sativa); [22]) of the same compound?
A: 0%

Q: What about the plant injury at 500 g/ha (rice (Oryza sativa); [23]) of the same compound?
A: 0%

Q: And the pest or weed control at 125 g/ha [3, 24]?
A: 0%

Q: What about the pest or weed control at 500 g/ha [3, 25] of the same compound?
A: 0%

Q: For `COC(=O)c1nc(-c2ccc(Br)cc2)nc(N)c1Cl` [Compound 96, methyl 6-amino-2-(4-bromophenyl)-5-chloro-4-pyrimidinecarboxylate], which pest or weed control at 125 g/ha [1, 18] is on record?
A: 100%

Q: What about the pest or weed control at 500 g/ha [1, 19] of the same compound?
A: 100%

Q: And the pest or weed control at 125 g/ha [2, 20]?
A: 0%

Q: And the pest or weed control at 500 g/ha [2, 21]?
A: 10%

Q: And the plant injury at 125 g/ha (rice (Oryza sativa); [22])?
A: 0%

Q: What about the plant injury at 500 g/ha (rice (Oryza sativa); [23]) of the same compound?
A: 0%

Q: What about the pest or weed control at 125 g/ha [3, 24] of the same compound?
A: 90%

Q: And the pest or weed control at 500 g/ha [3, 25]?
A: 90%
